From paper PMC8986608 (Journal of the American Chemical Society, 2022)

Molecular target: ScoE (Streptomyces coeruleorubidus, UniProt A0A3B6UEU3)
Conditions: alpha-KG, Fe(II)

- Km: 369 ± 40 µM
Compound: C[C@H](CC(=O)O)/N=C/C(=O)O [compound 2, imine CABA]
